Experimental findings from ChEMBL document CHEMBL4257568, “Synthesis, hepatotoxic evaluation and antipyretic activity of nitrate ester analogs of the acetaminophen derivative SCP-1” (Bioorg Med Chem Lett, 2018) are described below.

The subject of series [1] is HepaRG. The series can be described thus: Hepatotoxicity in human HepaRG cells assessed as GSH depletion at 500 uM after 3 to 12 hrs by ThiolTracker Violet dye-based fluorescence assay. The series is classed as toxicity, cell-based.
Series [2] concerns HepaRG. The series can be described thus: Hepatotoxicity in human HepaRG cells assessed as necrotic cell death at 1000 uM measured over 12 hrs by LDH assay. The series is classed as toxicity, cell-based.
Series [3] has as its system HepaRG. Briefly: Hepatotoxicity in human HepaRG cells assessed as GSH depletion at 500 uM measured over 12 hrs by ThiolTracker Violet dye-based fluorescence assay. In kind it is toxicity, cell-based.
Series [4] has as its system HepaRG. The series can be described thus: Hepatotoxicity in human HepaRG cells assessed as GSH depletion at 1000 uM after 12 hrs by ThiolTracker Violet dye-based fluorescence assay. The series is classed as toxicity, cell-based.
Series [5] addresses Cytochrome P450 2D6 (Homo sapiens, UniProt P10635). Briefly: Inhibition of human CYP2D6 expressed in baculosomes at 1 uM using MOBFC as substrate preincubated for 20 mins followed by substrate and NADP+ addition and measured after 30 mins by fluorescence assay. The series is classed as ADME. To be noted: recombinant enzyme, 0.5 h.
The subject of series [6] is HepaRG. Briefly: Hepatotoxicity in human HepaRG cells assessed as necrotic cell death at 500 uM measured over 12 hrs by LDH assay. In kind it is toxicity, cell-based.
In series [7] the target is Cytochrome P450 2E1 (Homo sapiens, UniProt P05181). The series can be described thus: Inhibition of human CYP2E1 expressed in baculosomes at 1 uM using EOMCC as substrate preincubated for 20 mins followed by substrate and NADP+ addition and measured after 30 mins by fluorescence assay. The series is classed as ADME. To be noted: recombinant enzyme, 0.5 h.
Sequence of Cytochrome P450 2E1 (P05181 whole entry): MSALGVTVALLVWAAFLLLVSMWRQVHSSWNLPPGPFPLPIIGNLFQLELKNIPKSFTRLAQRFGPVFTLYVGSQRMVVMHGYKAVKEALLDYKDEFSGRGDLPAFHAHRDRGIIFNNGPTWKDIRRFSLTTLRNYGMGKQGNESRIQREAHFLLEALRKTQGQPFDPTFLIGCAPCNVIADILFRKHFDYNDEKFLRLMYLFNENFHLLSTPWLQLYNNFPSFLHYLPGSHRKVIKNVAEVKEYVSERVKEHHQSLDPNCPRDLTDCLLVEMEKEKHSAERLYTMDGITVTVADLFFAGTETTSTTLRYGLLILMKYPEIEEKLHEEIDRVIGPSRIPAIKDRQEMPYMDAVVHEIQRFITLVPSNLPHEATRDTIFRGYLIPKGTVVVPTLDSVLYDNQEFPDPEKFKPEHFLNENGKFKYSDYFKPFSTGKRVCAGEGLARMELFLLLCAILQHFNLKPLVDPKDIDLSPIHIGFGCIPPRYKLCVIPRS
For series [8], the target named is Cytochrome P450 3A4 (Homo sapiens, UniProt P08684). Briefly: Inhibition of human CYP3A4 expressed in baculosomes at 1 uM using BOMCC as substrate preincubated for 20 mins followed by substrate and NADP+ addition and measured after 30 mins by fluorescence assay. Particulars: recombinant enzyme, 0.5 h. The series is classed as ADME.
Sequence of Cytochrome P450 3A4 (P08684 whole entry): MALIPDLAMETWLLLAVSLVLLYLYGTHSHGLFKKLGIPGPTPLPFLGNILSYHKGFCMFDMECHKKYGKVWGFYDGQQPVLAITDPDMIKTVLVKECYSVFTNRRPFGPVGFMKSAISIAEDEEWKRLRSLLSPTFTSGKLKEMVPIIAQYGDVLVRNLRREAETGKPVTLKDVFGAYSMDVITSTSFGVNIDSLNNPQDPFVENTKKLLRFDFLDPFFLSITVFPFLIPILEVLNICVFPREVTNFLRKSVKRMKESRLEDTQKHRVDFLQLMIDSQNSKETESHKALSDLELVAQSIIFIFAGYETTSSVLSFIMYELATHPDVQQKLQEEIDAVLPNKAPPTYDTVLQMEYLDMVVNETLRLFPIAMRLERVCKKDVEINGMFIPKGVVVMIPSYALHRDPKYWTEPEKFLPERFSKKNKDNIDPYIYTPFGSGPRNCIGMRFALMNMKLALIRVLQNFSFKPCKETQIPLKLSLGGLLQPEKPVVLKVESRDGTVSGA
Series [9] has as its system Mus musculus. The series can be described thus: Antipyretic activity in LPS-induced CD1 mouse fever model assessed as effect on rectal temperature at 50 ug/kg, po administered as single dose and measured every 2 hrs up to 24 hrs. The series is classed as functional, organism-based.

Activity calls are given as the source filed them. The calls are words filed in the database; no cut-off is given here.

Sequence of Cytochrome P450 2D6 (P10635 whole entry): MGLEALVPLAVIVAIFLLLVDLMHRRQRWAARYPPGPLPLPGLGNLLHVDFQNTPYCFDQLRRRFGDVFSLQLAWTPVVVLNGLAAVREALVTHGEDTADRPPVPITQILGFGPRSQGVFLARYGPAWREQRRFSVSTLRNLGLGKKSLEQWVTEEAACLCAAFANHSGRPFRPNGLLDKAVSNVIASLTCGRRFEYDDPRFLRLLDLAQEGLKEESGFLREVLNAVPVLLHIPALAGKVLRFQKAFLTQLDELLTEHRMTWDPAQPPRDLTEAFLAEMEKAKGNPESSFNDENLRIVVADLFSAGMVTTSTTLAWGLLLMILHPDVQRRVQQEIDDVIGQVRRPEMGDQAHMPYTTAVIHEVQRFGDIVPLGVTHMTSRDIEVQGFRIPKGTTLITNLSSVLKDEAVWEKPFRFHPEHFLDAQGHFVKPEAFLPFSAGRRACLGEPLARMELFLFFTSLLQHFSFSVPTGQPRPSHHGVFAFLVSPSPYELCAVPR

Regarding `O=C(CN1C(=O)c2ccccc2S1(=O)=O)Nc1ccc(O)cc1`, the Activity entry in series [1] was “Toxic”; in series [2], “Toxic”; in series [3], “Toxic”; in series [4], “Non-Toxic”; in series [6], “Non-Toxic”. In addition, the “inhibition (INH)” value in [5], in series [7] and in series [8] was “Not Active” throughout.

Consider `O=C(CN1C(=O)c2ccccc2S1(=O)=O)Nc1ccc(OC(=O)CCO[N+](=O)[O-])cc1`, for which the Activity entry in series [1], in series [2], in [3], in [4] and in [6] was “Non-Toxic” in each case. Moreover, the “inhibition (INH)” value in series [5], in [7] and in series [8] was “Not Active” throughout. In addition, the outcome in series [9] was inactive.

For `O=C(CN1C(=O)c2ccccc2S1(=O)=O)Nc1ccc(OC(=O)CCCO[N+](=O)[O-])cc1`, the Activity entry is reported as “Non-Toxic” in series [1], “Non-Toxic” in [3], “Non-Toxic” in series [4] and “Toxic” in series [6]. Further, the “inhibition (INH)” value in [5], in [7] and in series [8] was “Not Active” each time. In series [9], the outcome was Active.

As for `CC(=O)Nc1ccc(O)cc1` [ACETAMINOPHEN], the Activity result in [1], in [2], in [3], in series [4] and in series [6] was “Toxic” throughout. Moreover, in [9], the outcome was Active. In addition, the “inhibition (INH)” value in [7] and in [8] was “Active” in each case.
